According to patent US20100063065A1 (Inpharmatica Limited, priority 2005, published 2010):
pEC50: −log10 of the molar value. Where a name gives a salt, the structure may show the parent alone.

target: T1, PPARδ (Homo sapiens, UniProt Q03181); test: Transactivation assay (PPARδ GAL4 assay) in transiently transfected HEK293 cells; type: cell-based; settings: luciferase reporter, Table 1
T1 construct: fused to amino acids 147-441 of PPARδ downstream of CMV promoter; expressed in transfected cells; host or cells: HEK293 cells, transiently transfected with pFACMV-PPARδ using Fugene
T1 sequence (Q03181 147-441): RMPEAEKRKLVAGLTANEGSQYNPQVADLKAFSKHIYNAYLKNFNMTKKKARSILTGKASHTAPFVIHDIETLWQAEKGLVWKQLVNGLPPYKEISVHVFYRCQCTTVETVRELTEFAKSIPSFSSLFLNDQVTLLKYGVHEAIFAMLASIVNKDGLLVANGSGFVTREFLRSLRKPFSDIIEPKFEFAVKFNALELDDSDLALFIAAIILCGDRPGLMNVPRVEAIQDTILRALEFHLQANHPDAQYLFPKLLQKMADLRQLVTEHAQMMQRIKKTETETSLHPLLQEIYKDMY
Procedure: Compounds were screened for their functional potency in transiently transfected HEK293 cells for their ability to activate PPAR subtypes. Cells were cultured in DMEM (Invitrogen) supplemented with 10% foetal calf serum, glutamine, penicillin and streptomycin and plated at 10 000 cells/well of a 96-well solid white plate and incubated at 37° C./5% CO2 for 24 hours. Media was removed and the cells washed with PBS. Cells were then transiently transfected using Fugene (Roche) with 50 ng pFACMV-PPARδ (plasmid encoding amino acids 1-147 of the GAL4 DNA binding domain, fused to amino acids 147-441 of PPARδ downstream of CMV promoter) and 250 ng pFR-Luc (reporter plasmid containing 5×GAL4 response elements upstream of a luciferase gene), using a ratio of 3:1 Fugene:DNA. 100 μl of this transfection mixture in DMEM (without foetal calf serum) was added to each well, and the incubation continued for a further 24 hours. The cells are then again washed with PBS prior to the addition of 100 μl reduced serum medium (OptiMEM; Invitrogen). Compounds were added (10 μl in 2% DMSO in OptiMEM) to achieve final concentrations between 0-30 μM. The cells were then returned to the incubator for a further 24 hours. 100 μl of luciferase reagent (Bright Glo, Promega) was added directly to each well, and the luminescence determined using a suitable luminometer.
To measure the selectivity of compounds, their ability to transactivate GAL4 fusions of PPARα LBD and PPARγ LBD was determined. The activity of compounds was expressed as a percentage relative to control compounds: PPARγ rosiglitazone (BRL 49653), PPARδ GW501516 (11) or PPARα KCL1999000269 (12). EC50 values were calculated by fitting of the data to a sigmoidal dose response curve.

pEC50	Compound
6.00 to 7.00	CCc1cc(C(=O)c2cccc(-c3ccc(OC(F)(F)F)cc3)c2)c(NC(=O)CSCC(=O)O)s1 [Example 44, {[5-Ethyl-3-(4′-trifluoromethoxy-biphenyl-3-carbonyl)-thiophen-2-ylcarbamoyl]-methylsulfanyl}-acetic acid]
> 7.00	CCc1cc(C(=O)c2ccc(C(F)(F)F)cc2)c(NC(=O)CSCC(=O)O)s1 [Example 45, {[5-Ethyl-3-(4-trifluoromethylbenzoyl)-thiophen-2-ylcarbamoyl]-methylsulfanyl}-acetic acid]
4.52 to 6.00	CCc1cc(C(=O)c2cccc3ccccc23)c(NC(=O)CSCC(=O)O)s1 [Example 46, {[5-Ethyl-3-(naphthalene-1-carbonyl)-thiophen-2-ylcarbamoyl]-methylsulfanyl}-acetic acid]
6.00 to 7.00	CCc1cc(C(=O)c2ccc3ccccc3c2)c(NC(=O)CSCC(=O)O)s1 [Example 47, {[5-Ethyl-3-(naphthalene-2-carbonyl)-thiophen-2-ylcarbamoyl]-methylsulfanyl}-acetic acid]
4.52 to 6.00	CCc1cc(C(=O)c2cccc(OC)c2)c(NC(=O)CSCC(=O)O)s1 [Example 48, {[5-Ethyl-3-(3-methoxybenzoyl)-thiophen-2-ylcarbamoyl]-methylsulfanyl}-acetic acid]
4.52 to 6.00	CCc1cc(C(=O)c2ccc(OC)c(OC)c2)c(NC(=O)CSCC(=O)O)s1 [Example 49, {[3-(3,4-Dimethoxybenzoyl)-5-ethyl-thiophen-2-ylcarbamoyl]-methylsulfanyl}-acetic acid]
4.52 to 6.00	CCc1cc(C(=O)c2ccc(C(C)(C)C)cc2)c(NC(=O)CSCC(=O)O)s1 [Example 50, {[3-(4-tert-Butyl-benzoyl)-5-ethyl-thiophen-2-ylcarbamoyl]-methylsulfanyl}-acetic acid]
4.52 to 6.00	CCc1cc(C(=O)c2ccc(C)c(C)c2)c(NC(=O)CSCC(=O)O)s1 [Example 51, {[3-(3,4-Dimethyl-benzoyl)-5-ethyl-thiophen-2-ylcarbamoyl]-methylsulfanyl}-acetic acid]
4.52 to 6.00	CCc1cc(C(=O)c2ccc(C)c(C)c2)c(NC(=O)CC(C)(C)CC(=O)O)s1 [Example 52, 4-[3-(3,4-Dimethyl-benzoyl)-5-ethyl-thiophen-2-ylcarbamoyl]-3,3-dimethyl-butyric acid]
4.52 to 6.00	CCc1cc(C(=O)c2ccc(C)c(C)c2)c(NC(=O)CC2(CC(=O)O)CCCC2)s1 [Example 53, (1-{[3-(3,4-Dimethyl-benzoyl)-5-ethyl-thiophen-2-ylcarbamoyl]-methyl}-cyclopentyl)-acetic acid]
6.00 to 7.00	CCc1cc(C(=O)c2ccc(C)c(C)c2)c(NC(=O)CSC(C)(C)C(=O)O)s1 [Example 54, 2-{[3-(3,4-Dimethyl-benzoyl)-5-ethyl-thiophen-2-ylcarbamoyl]-methylsulfanyl}-2-methyl-propionic acid]
4.52 to 6.00	CCc1cc(C(=O)c2ccc(OC)nc2)c(NC(=O)CSCC(=O)O)s1 [Example 55, {[5-Ethyl-3-(6-methoxy-pyridine-3-carbonyl)-thiophen-2-ylcarbamoyl]-methylsulfanyl}-acetic acid]
4.52 to 6.00	CCc1cc(C(=O)c2ccc(OC)nc2)c(NC(=O)CC2(CC(=O)O)CCCC2)s1 [Example 56, (1-{[5-Ethyl-3-(6-methoxy-pyridine-3-carbonyl)-thiophen-2-ylcarbamoyl]-methyl}-cyclopentyl)-acetic acid]
4.52 to 6.00	CCc1cc(C(=O)c2ccc(C(F)(F)F)nc2)c(NC(=O)CSCC(=O)O)s1 [Example 57, {[5-Ethyl-3-(6-trifluoromethyl-pyridine-3-carbonyl)-thiophen-2-ylcarbamoyl]-methylsulfanyl}-acetic acid]
6.00 to 7.00	CCc1cc(C(=O)c2ccc(OC(C)C)nc2)c(NC(=O)CSCC(=O)O)s1 [Example 58, {[5-Ethyl-3-(6-isopropoxy-pyridine-3-carbonyl)-thiophen-2-ylcarbamoyl]-methylsulfanyl}-acetic acid]
6.00 to 7.00	CCc1cc(C(=O)c2cnc(OC(C)C)c(Cl)c2)c(NC(=O)CSCC(=O)O)s1 [Example 59, {[3-(5-Chloro-6-isopropoxy-pyridine-3-carbonyl)-5-ethyl-thiophen-2-ylcarbamoyl]-methylsulfanyl}-acetic acid]
4.52 to 6.00	CCc1cc(C(=O)c2ccc(Oc3ccccc3)nc2)c(NC(=O)CSCC(=O)O)s1 [Example 60, {[5-Ethyl-3-(6-phenoxy-pyridine-3-carbonyl)-thiophen-2-ylcarbamoyl]-methylsulfanyl}-acetic acid]
4.52 to 6.00	COc1ccc(C(=O)c2cc(C)sc2NC(=O)CSCC(=O)O)cc1 [Example 61, {[3-(4-Methoxy-benzoyl)-5-methyl-thiophen-2-ylcarbamoyl]-methylsulfanyl}-acetic acid]
4.52 to 6.00	COc1ccc(C(=O)c2cc(C(C)C)sc2NC(=O)CSCC(=O)O)cc1 [Example 62, {[5-Isopropyl-3-(4-methoxy-benzoyl)-thiophen-2-ylcarbamoyl]-methylsulfanyl}-acetic acid]
4.52 to 6.00	CCCc1cc(C(=O)c2ccc(OC)cc2)c(NC(=O)CSCC(=O)O)s1 [Example 63, {[3-(4-Methoxybenzoyl)-5-propyl-thiophen-2-ylcarbamoyl]-methylsulfanyl}-acetic acid]
4.52 to 6.00	O=C(O)CSCC(=O)Nc1sc(C2CC2)cc1C(=O)c1ccc(F)cc1 [Example 64, {[5-Cyclopropyl-3-(4-fluoro-benzoyl)-thiophen-2-ylcarbamoyl]-methylsulfanyl}-acetic acid]
4.52 to 6.00	COc1ccc(C(=O)c2cc(Cl)sc2NC(=O)CSCC(=O)O)cn1 [Example 65, {[5-Chloro-3-(6-methoxy-pyridine-3-carbonyl)-thiophen-2-ylcarbamoyl]-methylsulfanyl}-acetic acid]
4.52 to 6.00	COc1ccc(C(=O)c2cc(Cl)sc2NC(=O)CSCC(=O)O)cc1 [Example 66, {[5-Chloro-3-(4-methoxy-benzoyl)-thiophen-2-ylcarbamoyl]-methylsulfanyl}-acetic acid]
> 7.00	O=C(O)CSCC(=O)Nc1sc(Cl)cc1C(=O)c1ccc(OC(F)(F)F)cc1 [Example 67, {[5-Chloro-3-(4-trifluoromethoxy-benzoyl)-thiophen-2-ylcarbamoyl]-methylsulfanyl}-acetic acid]
4.52 to 6.00	COc1ccc(C(=O)c2ccsc2NC(=O)CSCC(=O)O)cc1 [Example 68, {[3-(4-Methoxy-benzoyl)-thiophen-2-ylcarbamoyl]-methylsulfanyl}-acetic acid]
4.52 to 6.00	CCc1cc(C(=O)c2ccc(OC)cc2)c(NC(=O)CCCCC(=O)O)s1 [Example 69, 5-[5-Ethyl-3-(4-methoxy-benzoyl)-thiophen-2-ylcarbamoyl]-pentanoic acid]
6.00 to 7.00	CCc1cc(C(=O)c2ccc(OC)cc2)c(NC(=O)CCCSCC(=O)O)s1 [Example 71, {3-[5-Ethyl-3-(4-methoxy-benzoyl)-thiophen-2-ylcarbamoyl]-propylsulfanyl}-acetic acid]
6.00 to 7.00	CCc1cc(C(=O)c2ccc(OC)cc2)c(NC(=O)C(C)SCC(=O)O)s1 (centres unmarked) [Example 72, {1-[5-Ethyl-3-(4-methoxy-benzoyl)-thiophen-2-ylcarbamoyl]-ethylsulfanyl}-acetic acid]
4.52 to 6.00	CCc1cc(C(=O)c2ccc(OC)cc2)c(NC(=O)CN(C)CC(=O)O)s1 [Example 73, ({[5-Ethyl-3-(4-methoxy-benzoyl)-thiophen-2-ylcarbamoyl]-methyl}-methyl-amino)-acetic acid hydrochloride]
